Measurements: patent EP0342558A2, “2-amino-4,5-methyleneadipic acid compounds for treatment of CNS disorders” (priority 1988, dated 1989)
Marks after values point to notes of the source that are not given here.

Columns and labels:
[1] = test system: 15-day-old chick embryo retina; settings: agonist alone, 30 minutes, pilot experiments
Source text: This assay is adapted from procedures described in literature sources [Olney, J.W., Price, M.T., Fuller, T.A., Labruyere, J., Samson, L., Carpenter, M., Mahan, K., "The Anti-Excitotoxic Effects of Certain Anesthetics, Analgesics and Sedative-Hypnotics", Neuroscience Letters, 68, 29-34, (1986)]. By an approach similar to that earlier described [Reif-Lehrer, L., Bergenthal, J. and Hanninen, L., "Effects of Monosodium Glutamate on Chick Embryo Retina in Culture", Invest. Ophthalmol., 14, 114-124, (1975)], 15-day-old chick embryos were decapitated and their eyes removed and cut into quadrants after excising the cornea and removing the lens, vitreous and iris. The retinal quadrants were then gently separated from the pigment epithelium and incubated for 30 minutes at 37°C in a standard balanced salt solution (BSS) to which test compounds, either excitatory amino acid agonists or potential antagonists or both, were added in various concentrations. As described elsewhere [Olney, J.W., Price, M.T., Samson, L. and Labruyere, J., "The Role of Specific Ions in Glutamate Neurotoxicity". Neurosci. Lett.. […]

QUIS = assay: Glutamate binding assay, [³H]AMPA (QUIS) binding to synaptic plasma membranes; settings: 10nM [³H]AMPA, 100 mM KSCN, SPM, 0-4°C, 10 minutes
Experimental: (§1) The purpose of this assay is to determine the binding affinity of a compound of Formula I for the three glutamic acid receptor sub-types. (NMDA, QUIS, Kainate). It is expected that a compound interacting with one of these sub-type receptors will mimic or antagonize the effect of the endogenous ligand and thereby have a memory enhancing effect or have a neuroprotective and/or anti-epileptic effects. This procedure was carried out as follows:
(§2) Synaptic plasma membranes (SPM) were prepared as previously described [Monahan, J.B. and Michel, J., "Identification and Characterization of an N-methyl-D-aspartate-specific L-[³H]glutamate Recognition Site in Synaptic Plasma Membranes, J. Neurochem., 48, 1699-1708 (1987)]. The SPM were stored at a concentration of 10-15 mg/ml in 0.32M sucrose, 0.5 mM EDTA, 1mM MgSO₄, 5 mM Tris/SO₄, pH 7.4, under liquid nitrogen. The identity and purity of the subcellular fractions were confirmed by both electron microscopy and marker enzymes. Protein concentrations were determined by using a modification of the method of Lowry [Ohnishi, S.T. and Barr, J.K., "A Simplified Method of Quantitating Proteins Using the Biuret and Phenol Reagents", Anal. Biochem., 86, 193-197 (1978)]. The SPM were treated identically for the [³H]AMPA (QUIS), [³H]kainate and NMDA-specific L-[³H]glumatate binding assays. The SPM were thawed at room temperature, diluted twenty-fold with 50mM Tris/-acetate, pH 7.4, incubated at 37°C for 30 minutes, and centrifuged at 100,000 g for 15 minutes. The dilution, incubation, and centrifugation was repeated a total of three times. The basic procedure for the receptor subclass binding assays was similar. This general method involved adding the radioligand (12.5 nM L-[³H]glutamate; 0.5 nM [³H]kainate or 10nM L-[³H]AMPA) to the appropriate concentration of the test compound and initiating the assay by the addition of ice cold SPM (0.2-0.45 mg). The binding assays were performed in 1.5 ml centrifuge tubes with the total volume adjusted to 1.0 ml. Additions of test compounds were made in 50 mM Tris/acetate, pH 7.4 and incubations were carried out at 0-4°C. The incubation time for the NMDA and the AMPA binding assays was 10 minutes and for the kainate binding assay 60 minutes. The AMPA binding assay contained 100 mM KSCN. […] The supernatant was aspirated and the pelleted membranes dissolved in Beckman Ready-Protein scintillation cocktail and the samples counted on a Beckman LS 5800 or 3801 liquid scintillation counter with automatic corrections for quenching and counting efficiency. […] Radioligand binding to the SPM was analyzed using Scatchard and Hill transformations and the Ki values of the compounds determined using logit-log transformations. […]

NMDA neurotoxicity = assay: In vitro chick retina assay, protection against NMDA; format: cell-based; settings: for % protection vs NMDA: NMDA 200 µM; for Antagonist activity vs NMDA: concentration required to completely prevent toxicity of NMDA (200 µM), 30 minutes at 37°C
Source text: (§3) This assay is adapted from procedures described in literature sources [Olney, J.W., Price, M.T., Fuller, T.A., Labruyere, J., Samson, L., Carpenter, M., Mahan, K., "The Anti-Excitotoxic Effects of Certain Anesthetics, Analgesics and Sedative-Hypnotics", Neuroscience Letters, 68, 29-34, (1986)]. By an approach similar to that earlier described [Reif-Lehrer, L., Bergenthal, J. and Hanninen, L., "Effects of Monosodium Glutamate on Chick Embryo Retina in Culture", Invest. Ophthalmol., 14, 114-124, (1975)], 15-day-old chick embryos were decapitated and their eyes removed and cut into quadrants after excising the cornea and removing the lens, vitreous and iris. The retinal quadrants were then gently separated from the pigment epithelium and incubated for 30 minutes at 37°C in a standard balanced salt solution (BSS) to which test compounds, either excitatory amino acid agonists or potential antagonists or both, were added in various concentrations. As described elsewhere [Olney, J.W., Price, M.T., Samson, L. and Labruyere, J., "The Role of Specific Ions in Glutamate Neurotoxicity". Neurosci. Lett.. […] After incubation for 30 minutes, the retinal quadrants were fixed by immersion in phosphate-buffered solution containing 1.5% glutaraldehyde and 1% paraformaldehyde, then additionally fixed in 1% osmium tetroxide and embedded in araldite, allowing sections to be cut for either light or electron microscopy [Olney, J.W., "Glutamate-Induced Retinal Degeneration in Neonatal Mice. Electron Microscopy of the Acutely Evolving Lesion", J. Neuropathol. Exp. Neurol., 28, 455-474, (1969)]. […] Neurosci. […] For purposes of the present study, NMDA and KA were the agonists employed and numerous potential antagonists were tested at various concentrations for their ability to prevent NMDA or KA neurotoxicity. […] Internal controls on each experiment consisted of at least 6 specimens being incubated with agonist alone (NMDA 200 µM or KA 25 µM). […]

QA = assay: In vitro chick retina assay, protection against QA; format: cell-based; settings: 30 minutes at 37°C; QA concentration not given
NMDA = assay: Glutamate binding assay, NMDA-specific L-[³H]glutamate binding to synaptic plasma membranes; settings: 12.5 nM L-[³H]glutamate, SPM, 0-4°C, 10 minutes
Experimental: as §1, §2

Kainate = assay: Glutamate binding assay, [³H]kainate binding to synaptic plasma membranes; settings: 0.5 nM [³H]kainate, SPM, 0-4°C, 60 minutes
Experimental: as §1, §2

[2] = test system: rat brain synaptic membranes (SPM); assay: [³H]TCP modulation assay; format: binding
Experimental: The effect on [³H]TCP (1-[1-(2-thienyl)-cyclohexyl]piperidine) binding was measure in rat brain synaptic membranes (SPM) prepared as previously described (J.B. Monahan and J. Michel; J. Neurochem., 48, 1699-1708, (1987)). Prior to their use in the binding assay, frozen SPM were thawed, diluted twenty fold with 50 mM Tris/acetate, pH 7.4 containing 0.04% (v/v) Triton X-100, incubated for 30 min., at 37°C and centrifuged at 95,000 xspg for 15 min. The Triton X-100 treated SPM were washed with 5 mM Tris/HCl, pH 7.4 and centrifuged a total of six times. The compounds of the invention were incubated with SPM (0.2-0.4 mg protein) and 2 nM [³H]TCP in a total volume of 0.5 ml of 5 mM Tris/HCl buffer pH 7.4 at 25°C for 60 min. The samples were filtered through glass fiber filters (Schleicher & Schuell #32) which have been pretreated with 0.05% (v/v) polyethylenimine, washed with 2 ml of ice-cold 5 mM Tris/HCl buffer, and then counted on a Beckman LS 5800 liquid scintillation counter with automatic corrections for quenching and counting efficiency. Antagonist character was defined as the ability of the test compound to inhibit [³H]TCP binding in the presence of 1 µM L-glutamate, while agonist character is shown by stimulation of either basal [³H]TCP binding or the binding in the presence of 10 µM D-AP7, a specific competitive NMDA antagonist. Non specific binding was defined as the residual binding in the presence of 60 µM phencyclidine.

KA neurotoxicity = assay: In vitro chick retina assay, protection against KA; format: cell-based; settings: concentration required to completely prevent toxicity of KA (25 µM); 30 minutes at 37°C
Source text: as §3

mungbean seedling growth = settings: cited from earlier work
[3] = test system: 15-day-old chick embryo retina; settings: 1 mM, incubated for 30 minutes in BSS, pilot studies; cited from earlier work

SMILES	Ki (QUIS)	Antagonist activity vs NMDA (NMDA neurotoxicity)	Antagonist activity vs QA (QA)	Ki (NMDA)	Binding Ki KA (Kainate)	Antagonist activity vs KA (KA neurotoxicity)	also measured
CN[C@H](CC(=O)O)C(=O)O [NMDA, N-methyl-D-aspartate]							lowest concentrations required to consistently obtain fully developed retinal lesions [1]: 200 µM
N[C@H](CC1CC1C(=O)O)C(=O)O (stereo partly drawn) [cis-D-2-amino-4,5-methyleneadipic acid, Cis-D-2-amino-4,5-methyleneadipic acid]	> 300 µM	> 75 µM	>500 µM	1.9 µM	13.0 µM	>500 µM	% protection vs NMDA (NMDA neurotoxicity; compound at 10 µM): 10(0%)*; % protection vs NMDA (NMDA neurotoxicity; compound at 25 µM): 25(33%)*; % protection vs NMDA (NMDA neurotoxicity; compound at 50 µM): 50(66%)*; % protection vs NMDA (NMDA neurotoxicity; compound at >75 µM): 100%; maximal stimulation of [³H]TCP binding ([2]; compared with the full agonist glutamate): substantially less than that shown for the full agonist glutamate; [³H]TCP Bound ([2]; compound 100 µM, in presence of D-AP7 (10µM), control without compound 5016): 11453 DPM; [³H]TCP Bound ([2]; compound 100 µM, in presence of L-Glutamate (1µM), control without compound 15466): 12265 DPM; [³H]TCP Bound ([2]; compound 200 µM, in presence of D-AP7 (10µM), control without compound 5016): 11161 DPM; [³H]TCP Bound ([2]; compound 200 µM, in presence of L-Glutamate (1µM), control without compound 15466): 11880 DPM; [³H]TCP Bound ([2]; compound 400 µM, in presence of D-AP7 (10µM), control without compound 5016): 9345 DPM; [³H]TCP Bound ([2]; compound 400 µM, in presence of L-Glutamate (1µM), control without compound 15466): 9622 DPM; effect on quantity of [³H]TCP bound ([2]; in the presence of D-APH): agonist effect; effect on quantity of [³H]TCP specifically bound ([2]; in the presence of L-glutamic acid): antagonist effect
C=C(C)[C@H]1CN[C@H](C(=O)O)[C@H]1CC(=O)O [KA, Kainate]							lowest concentrations required to consistently obtain fully developed retinal lesions [1]: 25 µM
NC(C(=O)O)[C@@H]1C[C@@H]1C(=O)O (relative stereo) [cis-α-(carboxycyclopropyl)glycine]							inhibition of mungbean seedling growth (mungbean seedling growth): potent inhibitor
N[C@H](CC1CC1C(=O)O)C(=O)O (stereo partly drawn) [trans-D-2-amino-4,5-methyleneadipic acid, Trans-D-2-amino-4,5-methyleneadipic acid]	> 300 µM	> 125 µM	>500 µM	2.2 µM	25.0 µM	>500 µM	% protection vs NMDA (NMDA neurotoxicity; compound at 50 µM): 50(0%)*; % protection vs NMDA (NMDA neurotoxicity; compound at 75 µM): 75(66%)*; % protection vs NMDA (NMDA neurotoxicity; compound at >125 µM): 100%
N[C@@H](CCC(=O)O)C(=O)O [Glu, Glutamate]							retinal lesion [3]: a fully developed lesion occurs
N[C@@H](CC1CC1C(=O)O)C(=O)O (stereo partly drawn) [trans-L-2-amino-4,5-methyleneadipic acid, Trans-L-2-amino-4,5-methyleneadipic acid]	> 300 µM	>500 µM	>500 µM	2.5 µM	37.0 µM	>500 µM	
N[C@@H](CC1CC1C(=O)O)C(=O)O (stereo partly drawn) [cis-L-2-amino-4,5-methyleneadipic acid, Cis-L-2-amino-4,5-methyleneadipic acid]	> 300 µM	>500 µM	>500 µM	14.2 µM	23.0 µM	>500 µM	
